Measurements as given in patent US12391648B2, “Pyridyloxy thioester derivative and preparation method therefor, herbicidal composition, and application” (Qingdao Kingagroot Chemical Compound Co., Ltd., priority 2018, dated 2025).

The compounds below were run on Abutilon theophrasti (assay: Post-emergence test experiment (Table 3, 1000 g/ha)). Conditions: post-emergence spray, after 3 weeks, fresh weight inhibition.
Format: in vivo
Description: (§1) The activity level standard of harmful plants destruction (i. e. growth inhibition rate) is as follows: • Level 5: the growth inhibition rate is greater than 85%; • Level 4: the growth inhibition rate is equal to or greater than 60% and less than 85%; • Level 3: the growth inhibition rate is equal to or greater than 40% and less than 60%; • Level 2: the growth inhibition rate is equal to or greater than 20% and less than 40%; • Level 1: the growth inhibition rate is equal to or greater than 5% and less than 20%; • Level 0: the growth inhibition rate is less than 5%;
(§2) The above described growth inhibition rate is fresh weight inhibition rate.
(§3) Post-emergence test experiment: Monocotyledonous and dicotyledonous weed seeds and main crop seeds (i. e. wheat, corn, rice, soybean, cotton, oilseed, millet and sorghum.) were put into a plastic pot loaded with soil. Then covered with 0.5-2 cm soil, the seeds were allowed to grow in good greenhouse environment. The test plants were treated at 2-3 leaf stage 2 weeks after sowing. The test compounds of the invention were dissolved with acetone respectively, then added with tween-80, and using 1.5 liters per hectare of an emulsible concentrate of methyl oleate as a synergist, and diluted by certain amount of water to certain concentration. The solution was sprayed to the plants with a sprayer. Then the plants were cultured for 3 weeks in the greenhouse, and the experiment result of weed controlling effect after 3 weeks was listed in tables 3-4.
With `CSC(=O)C(Oc1nc(F)c(Cl)c(N)c1Cl)C1CC1` (stereo not drawn) [Compound 28] the “Activity level (growth inhibition rate) Abutilon theophrasti” value was 5 (Level 5: the growth inhibition rate is greater than 85%). `CCn1nccc1C(Oc1nc(F)c(Cl)c(N)c1Cl)C(=O)SC` (stereo not drawn) [Compound 56] was tested, and the “Activity level (growth inhibition rate) Abutilon theophrasti” value was 5 (Level 5: the growth inhibition rate is greater than 85%). For `CSC(=O)C(N)Oc1nc(F)c(Cl)c(N)c1Cl` (stereo not drawn) [Compound 45], the “Activity level (growth inhibition rate) Abutilon theophrasti” value was 5 (Level 5: the growth inhibition rate is greater than 85%). `CSC(=O)C(CCl)Oc1nc(F)c(Cl)c(N)c1Cl` (stereo not drawn) [Compound 37] was tested, and the “Activity level (growth inhibition rate) Abutilon theophrasti” value was 5 (Level 5: the growth inhibition rate is greater than 85%). In the case of `CSC(=O)C(Oc1nc(F)c(Cl)c(N)c1Cl)c1cccnc1` (stereo not drawn) [Compound 63], the “Activity level (growth inhibition rate) Abutilon theophrasti” value is reported as 5 (Level 5: the growth inhibition rate is greater than 85%). In the case of `CSC(=O)C(Oc1nc(F)c(Cl)c(N)c1Cl)c1cnn(C(F)F)c1` (stereo not drawn) [Compound 58], the “Activity level (growth inhibition rate) Abutilon theophrasti” value is reported as 5 (Level 5: the growth inhibition rate is greater than 85%). With `CSC(=O)C(CCCl)Oc1nc(F)c(Cl)c(N)c1Cl` (stereo not drawn) [Compound 40] the “Activity level (growth inhibition rate) Abutilon theophrasti” value was 5 (Level 5: the growth inhibition rate is greater than 85%). In the case of `C=CC(Oc1nc(F)c(Cl)c(N)c1Cl)C(=O)SC` (stereo not drawn) [Compound 32], the “Activity level (growth inhibition rate) Abutilon theophrasti” value is reported as 5 (Level 5: the growth inhibition rate is greater than 85%). For `CSC(=O)C(Oc1nc(F)c(Cl)c(N)c1Cl)C(F)F` (stereo not drawn) [Compound 39], the “Activity level (growth inhibition rate) Abutilon theophrasti” value was 5 (Level 5: the growth inhibition rate is greater than 85%).

The compounds below were run on Galium spurium in the same assay as above. Conditions: post-emergence spray, after 3 weeks, fresh weight inhibition.
Format: in vivo
Description: as §1, §2, §3
With `CSC(=O)C(Oc1nc(F)c(Cl)c(N)c1Cl)C1CC1` (stereo not drawn) [Compound 28] the “Activity level (growth inhibition rate) Galium spurium” value was 5 (Level 5: the growth inhibition rate is greater than 85%). For `CCn1nccc1C(Oc1nc(F)c(Cl)c(N)c1Cl)C(=O)SC` (stereo not drawn) [Compound 56], the “Activity level (growth inhibition rate) Galium spurium” value was 5 (Level 5: the growth inhibition rate is greater than 85%). For `CSC(=O)C(N)Oc1nc(F)c(Cl)c(N)c1Cl` (stereo not drawn) [Compound 45], the “Activity level (growth inhibition rate) Galium spurium” value was 5 (Level 5: the growth inhibition rate is greater than 85%). With `CSC(=O)C(CCl)Oc1nc(F)c(Cl)c(N)c1Cl` (stereo not drawn) [Compound 37] the “Activity level (growth inhibition rate) Galium spurium” value was 5 (Level 5: the growth inhibition rate is greater than 85%). With `CSC(=O)C(Oc1nc(F)c(Cl)c(N)c1Cl)c1cccnc1` (stereo not drawn) [Compound 63] the “Activity level (growth inhibition rate) Galium spurium” value was 5 (Level 5: the growth inhibition rate is greater than 85%). `CSC(=O)C(Oc1nc(F)c(Cl)c(N)c1Cl)c1cnn(C(F)F)c1` (stereo not drawn) [Compound 58] was tested, and the “Activity level (growth inhibition rate) Galium spurium” value was 5 (Level 5: the growth inhibition rate is greater than 85%). For `CSC(=O)C(CCCl)Oc1nc(F)c(Cl)c(N)c1Cl` (stereo not drawn) [Compound 40], the “Activity level (growth inhibition rate) Galium spurium” value was 5 (Level 5: the growth inhibition rate is greater than 85%). In the case of `C=CC(Oc1nc(F)c(Cl)c(N)c1Cl)C(=O)SC` (stereo not drawn) [Compound 32], the “Activity level (growth inhibition rate) Galium spurium” value is reported as 5 (Level 5: the growth inhibition rate is greater than 85%). `CSC(=O)C(Oc1nc(F)c(Cl)c(N)c1Cl)C(F)F` (stereo not drawn) [Compound 39] was tested, and the “Activity level (growth inhibition rate) Galium spurium” value was 5 (Level 5: the growth inhibition rate is greater than 85%).

Each compound was assayed on Monochoria vaginalis in the same assay as above. Conditions: post-emergence spray, after 3 weeks, fresh weight inhibition.
Format: in vivo
Description: as §1, §2, §3
With `CSC(=O)C(Oc1nc(F)c(Cl)c(N)c1Cl)C1CC1` (stereo not drawn) [Compound 28] the “Activity level (growth inhibition rate) Monochoria Vaginalis” value was 5 (Level 5: the growth inhibition rate is greater than 85%). With `CCn1nccc1C(Oc1nc(F)c(Cl)c(N)c1Cl)C(=O)SC` (stereo not drawn) [Compound 56] the “Activity level (growth inhibition rate) Monochoria Vaginalis” value was 5 (Level 5: the growth inhibition rate is greater than 85%). For `CSC(=O)C(N)Oc1nc(F)c(Cl)c(N)c1Cl` (stereo not drawn) [Compound 45], the “Activity level (growth inhibition rate) Monochoria Vaginalis” value was 5 (Level 5: the growth inhibition rate is greater than 85%). In the case of `CSC(=O)C(CCl)Oc1nc(F)c(Cl)c(N)c1Cl` (stereo not drawn) [Compound 37], the “Activity level (growth inhibition rate) Monochoria Vaginalis” value is reported as 5 (Level 5: the growth inhibition rate is greater than 85%). With `CSC(=O)C(Oc1nc(F)c(Cl)c(N)c1Cl)c1cccnc1` (stereo not drawn) [Compound 63] the “Activity level (growth inhibition rate) Monochoria Vaginalis” value was 5 (Level 5: the growth inhibition rate is greater than 85%). `CSC(=O)C(Oc1nc(F)c(Cl)c(N)c1Cl)c1cnn(C(F)F)c1` (stereo not drawn) [Compound 58] was tested, and the “Activity level (growth inhibition rate) Monochoria Vaginalis” value was 5 (Level 5: the growth inhibition rate is greater than 85%). `CSC(=O)C(CCCl)Oc1nc(F)c(Cl)c(N)c1Cl` (stereo not drawn) [Compound 40] was tested, and the “Activity level (growth inhibition rate) Monochoria Vaginalis” value was 5 (Level 5: the growth inhibition rate is greater than 85%). With `C=CC(Oc1nc(F)c(Cl)c(N)c1Cl)C(=O)SC` (stereo not drawn) [Compound 32] the “Activity level (growth inhibition rate) Monochoria Vaginalis” value was 5 (Level 5: the growth inhibition rate is greater than 85%). In the case of `CSC(=O)C(Oc1nc(F)c(Cl)c(N)c1Cl)C(F)F` (stereo not drawn) [Compound 39], the “Activity level (growth inhibition rate) Monochoria Vaginalis” value is reported as 5 (Level 5: the growth inhibition rate is greater than 85%).
